Measurements from the NIST ThermoML archive (doi:10.1016/j.jct.2010.04.020).

What was measured:
[1] = for mass density: 101.33 kPa, Liquid, Vibrating tube method; for Triple point temperature: Crystal
[2] = Molar enthalpy of transition or fusion; settings: Crystal; DSC

CCCC[n+]1cccc2ccccc21.O=S(=O)([N-]S(=O)(=O)C(F)(F)F)C(F)(F)F [1-butylquinolinium bis((trifluoromethyl)sulfonyl)amide]
[1]
Settings	Triple point temperature [K]	mass density [kg/m3]
333.15 K	–	1416.26
343.15 K	–	1407.38
353.15 K	–	1398.52
363.15 K	–	1389.69
DTA	329.12	–
visual observation	329.62	–

Settings	Molar enthalpy of transition or fusion [kcal/mol]
[2]	10.5
